According to article PMC5844530, “Fosmetpantotenate (RE-024), a phosphopantothenate replacement therapy for pantothenate kinase-associated neurodegeneration: Mechanism of action and efficacy in nonclinical models” (PLoS ONE, 2018):
Read-outs that look alike come from different tables or passages of the source. Each block holds one compound with its values, some of them ahead of it.

Key:
[1] = In vitro blood-brain barrier permeability (PBEC/rat astrocyte co-culture); conditions: pH 7.4, In Vitro Measured Papp, mean ± SD (n = 3)
Protocol: (§1) Permeability studies were performed after 2 days of co-culture with rat astrocytes. […] In each filter used for transport, a paracellular marker was included as an internal control to monitor the integrity of the cell monolayer. The day of the experiment, culture medium was removed and cells on Transwell inserts were pre-incubated for 30 min with Hank's Balanced Salt Solution (HBSS) containing 20 mM Hepes pH 7.4 and 0.1% bovine serum albumin (BSA). […] Aliquots from the basal compartment were taken after 1 h; fluorescence was measured using a fluorescence detector. The permeability coefficient of the total system was calculated as follows: P[cm/s]=Vd×ΔMr/A×Md×Δt Where:
(§2) To correct for the contribution of the porous polycarbonate membrane of the filter in the absence of cells, the permeability was also determined for the cell-free system. Contribution of the endothelial cell monolayer to the permeability of the cell and filter system was determined by the following equation: 1/Pe=1/Pt-1/Pf Where the total permeability of the system is denoted as Pt, the cell-free filter as Pf, and the endothelial cell layer alone as Pe. The total resistance of the system towards passage of a substance is composed of 2 resistances in series: that of the cell monolayer and that of the filter; permeability is estimated as 1/resistance [27]. […] Mass balance was determined based on the amount of compound recovered in the donor and receiver chamber at the end of the assay relative to the amount added to the donor chamber at time 0.

[2] = test system: porcine brain endothelial cell (PBEC) co-culture model; assay: as above; conditions: in words
Protocol: as §1, §2

[3] = Microdialysis (striatal dialysate and blood) in cynomolgus monkeys; type: in vivo, cynomolgus monkey; conditions: cynomolgus monkey, in vivo, po
Protocol: Monkeys were sedated by intramuscular (i.m.) ketamine administration and cannulated for intravenous (i.v.) administration of propofol infusion (initiated 15–30 min after ketamine administration). Subsequently, the animals were placed in an magnetic resonance imaging (MRI)-compatible stereotaxic frame (Kopf Model 1430), and T1 and T2 weighted scans (for up to 1 h) were carried out with a 7 cm loop-coil in a 3 Tesla Siemens Magnetom TIM Trio (Germany). To derive the coordinates, Digital Imaging and Communications in Medicine (DICOM) files were transformed into Neuroimaging Informatics Technology Initiative (NIFTI) format. NIFTI-compatible images were loaded into 3D viewer software (MRIcro version 1.40 build 1), and the stereotaxic zero in the MRI image was determined using the coordinates of the earbar-tips. Coordinates for placement of the guide cannulas were calculated for every individual animal by use of MRI images and a primate brain map.
On a separate day, microdialysis guide cannulas were placed bilaterally in the head of the caudate nucleus using the same MRI compatible stereotaxic frame (Kopf Model 1430), under isoflurane anesthesia. Prior to surgery, animals were administered ketamine (i.m.), and subsequently anesthetized with isoflurane (0.8%-2% inhalation) while artificially ventilated with O2/N2O (40/60) at 60 to 80 mL tidal volume via an intratracheal tube. During surgery, subcutaneous or i.v. fluids were provided. Animals were allowed to recover from the anesthesia in a warmed environment, single housed, and given at a minimum a 14-day post-surgery recovery time. The following medications were administered to reduce pain and inflammation, as well as reduce the chance of post-operative infection: meloxicam (Metacam 5 mg/mL, 0.2 mg/kg, buprenorphine (Temgesic, 0.3 mg/mL, 0.0038 mg/kg), enrofloxacine (25 mg/mL, 5 mg/kg), and amoxicillin (150 mg/mL, 15 mg/kg).
Samples were stored in -80°C.
From monkeys only, whole blood samples (0.5 mL) were collected from the femoral vein at -1, 0, 1, 2, and 3 h relative to dosing and transferred immediately to chilled polypropylene 15 mL vials containing 2500 μL of 0.15% formic acid in acetonitrile, mixed, and placed on dry ice. After the collections samples were stored at -80°C.
Sample preparation for monkey dialysate and blood samples: Concentrations of fosmetpantotenate (D1 and D2), PA, and PPA in monkey dialysate and blood samples were determined by Brains On-Line LLC. […] For dialysate quantitation, standards and QC samples were prepared in control dialysate (0.2% BSA in aCSF: water: 0.04% ascorbic acid in aqueous 0.02 M formic acid [4.5:24:6 v/v/v]). Standards, QC samples, and dialysate (10 μL) were mixed with 6 μL 20 mM formic acid and 0.01% ascorbic acid in water containing internal standard (10 ng/mL of ^15N/^13C3-PA) and analyzed by LC-MS/MS. Blood standards and QC samples were prepared in supernatant from control monkey blood which had been treated with 5 volumes of 0.15% formic acid in acetonitrile. Endogenous levels >LLOQ were detected for PA in control quenched blood only and quantitated at 56.56 nM based on calibration standard prepared in solvent. To compensate for endogenous PA in the calibration curve control blood, PA standard curve concentrations were spiked plus endogenous levels. Sample work-up of blood involved diluting 10 μL supernatant from study blood samples, standards, and QC samples with 90 μL of 20 mM formic acid and 0.01% ascorbic acid in water, then treating with 4 μL 20 mM formic acid and 0.01% ascorbic acid in water containing internal standard (10 ng/mL of ^15N/^13C3-PA) and analyzing by LC-MS/MS.

[4] = test system: porcine brain endothelial cell (PBEC) co-culture model
Protocol: as §1, §2

[5] = male, CD-1, mouse, in vivo
[6] = male, Sprague-Dawley, rat, in vivo
Protocol: (§3) The whole blood samples (0.5 mL) were collected into syringes that were prefilled with 2.5 mL of ice-cold 0.1% formic acid in acetonitrile. The volume ratio of the whole blood to 0.1% formic acid in acetonitrile was 1/5 (v/v). Samples were frozen (-70°C) until analyzed by LC-MS/MS.
(§4) Standard curves and quality control (QC) samples were prepared fresh on the day of analysis by serial dilution of the standard mixture in quenched whole blood (1 part of blood to 5 parts of 0.1% formic acid in acetonitrile) and centrifuged. […] The frozen study samples were thawed in an ice/water bath and centrifuged. Supernatant (50 μL) from standards, QC samples, and study samples was transferred to a 96-well plate and dried completely under nitrogen. The dried residues were reconstituted with 100 μL of 0.1% formic acid in water containing internal standard (5 ng/mL of ^15N/^13C3-RE-024-02) and analyzed by LC-MS/MS.
(§5) LC-MS/MS analysis for blood pharmacokinetic samples: Samples were analyzed using an Agilent 1100 binary pump (Agilent Technologies, Santa Clara, CA, USA), connected to an AB Sciex API 6500 mass spectrometer (SCIEX, Framingham, MA, USA). An electrospray ionization source was used, scanning in the positive mode. […] The chromatography column was a Varian Metasil AQ 120–5 C18 column, 5 μm, 50 x 2.00 mm (Part No. A0530050X020) at ambient temperature, with a 0.5 mL/min flow rate and a 20 μL injection volume. Mobile phase (A) consisted of 0.1% formic acid in water; while mobile phase (B) consisted of 0.1% formic acid in acetonitrile:water (9:1, v/v).
(§6) Quantitation of in vivo samples: Peak areas were integrated using Analyst software (AB Sciex, Concord, Ontario, Canada). […] Calibration standards (at a minimum 7 per curve) were fit by linear regression with (1/x^2) weighting. QC samples were used (triplicate) at 3 concentrations for all tandem mass spectrometry (MS/MS) runs.
(§7) Pharmacokinetic calculations: PK analysis was performed using Phoenix WinNonlin®, Build 6.3.0.395 (Certara, Princeton, NJ, USA) using a non-compartmental model (PO dose = model 200 for extravascular dosing). […] Post-dose concentrations below the limit of quantitation (BLQ) were omitted from calculation.

[7] = male, C57Bl6, mouse, in vivo, po, 700 mg/kg
Protocol: (§8) Mice were anesthetized using isoflurane (2%, 800 mL/min O2).
(§9) For oral dosing experiments, MetaQuant microdialysis probes (regenerated cellulose membrane, BrainLink, the Netherlands) were inserted into the striatum (3 mm exposed surface). Coordinates for the tips of the probes for mice were anterior-posterior (AP) = +0.8 mm from bregma, lateral (L) = -1.7 mm from midline, and ventral (V) = -4.0 mm from dura, the toothbar set at 0 mm.
(§10) Microdialysis animal dosing and sample collection: Adult non-fasted male C57Bl6 mice (20–29 g; Harlan Laboratories, Livermore, CA), and Macaca fascicularis (4–9 kg, 3–6 yr old) were used for the experiments. For oral dosing, fosmetpantotenate was formulated as a solution in 20% hydroxypropyl-beta-cyclodextrin in 50 mM citrate buffer in water pH 5.0 and administered using a dose volume of 10 mL/kg. Mice (N = 6 serially sampled) received fosmetpantotenate as a single oral dose at 700 mg/kg and monkeys received a single oral dose at either 100 mg/kg (N = 4 serially sampled) or 300 mg/kg (N = 2 serially sampled).
(§11) Microdialysis: On the morning of the microdialysis experiment, a MetaQuant probe was inserted into the guide shaft targeting the head of the caudate nucleus and perfused at a rate of 0.15 μL/min aCSF containing 0.2% (w/v) BSA, with a carrier flow of 0.8 μL/min of ultrapure water.
(§12) A single 30 min pre-dose basal dialysate sample was collected from mice over -0.5 to 0 h, and three 30 min basal samples from monkeys over -1.5 to 0 h. Fosmetpantotenate was administered at t = 0, and 30 min dialysate samples were collected for an additional 4 h for mice and 3 h for monkeys.
(§13) Sample preparation for mouse dialysate samples: Concentrations of fosmetpantotenate, PA, and PPA in mouse dialysate were determined by Nextcea, Inc, Woburn, MA, using LC-MS/MS. Standard curves and QC samples containing fosmetpantotenate (D1 and D2) and the surrogate analytes for PA and PPA (^15N/^13C3-PA and ^15N/^13C3-PPA) were prepared fresh in 0.1% formic acid in water. Frozen study mouse dialysate samples were thawed in ice/water bath. Standards, QC samples, and thawed study dialysate samples (20 μL) were mixed with 20 μL 0.1% formic acid in water containing internal standard (50 ng/mL of ^15N/^13C3-fosmetpantotenate) and analyzed by LC-MS/MS.
(§14) LC-MS/MS analysis for mouse dialysate samples: Concentrations of fosmetpantotenate, PA, and PPA in dialysate from mice were determined by using LC-MS/MS conditions described for blood PK analysis by Nextcea, except dialysate samples were analyzed using an ACIEX API 5000 and flow rate was increased to 0.6 mL/min.
(§15) Quantitation of in vivo samples: Peak areas were integrated using Analyst software (AB Sciex, Concord, Ontario, Canada). Calibration curves for all blood samples from mouse and rat PK studies and mouse dialysate samples were prepared by plotting the analyte to internal standard (^15N/^13C3-fosmetpantotenate) peak area ratio vs concentration.

in vivo [8] = conditions: male, CD-1, mouse, po
in vivo [9] = conditions: male, Sprague-Dawley, rat, po
Protocol: as §3, §4, §5, §6, §7

in vivo [10] = conditions: cynomolgus monkey, po, 300 mg/kg
in vivo [11] = conditions: male, C57Bl6, mouse, po, 700 mg/kg
Protocol: as §8, §9, §10, §11, §12, §13, §14, §15

[12] = Pharmacokinetics in whole blood, CD-1 mice; conditions: male, CD-1, mouse, whole blood, oral, 100 mg/kg, Conc., blood; fosmetpantotenate 100 mg/kg PO; 2 hr; individual animals
[13] = PA Concentration in Mouse Striatal Dialysate (Corrected for Dilution)
[14] = PA Concentration in Mouse Striatal Dialysate (Corrected for Dilution), Mean

Structure (SMILES): C=CCN1CC[C@]23c4c5ccc(O)c4O[C@H]2C(=O)CC[C@@]3(O)[C@H]1C5 [Naloxone]
Papp at 1 h [1]: 42.3 ± 11 ×10⁻⁶ cm/s | blood-brain barrier permeability classification [2]: high permeability range

AUC ([3]; 300 mg/kg): 2.17 µM·h | Cmax ([3]; 300 mg/kg): 1300 nM | AUC ([3]; cynomolgus, 100 mg/kg): 0.467 ± 0.152 µM·h | Cmax ([3]; cynomolgus, 100 mg/kg): 255 ± 70 nM | AUC ([3]; cynomolgus, 300 mg/kg): 9.34 µM·h | Cmax ([3]; cynomolgus, 300 mg/kg): 4270 nM | blood-brain barrier permeability classification [4]: permeable | fold increase in AUC as dose increased from 100 to 700 mg/kg [5]: 3.1 fold | fold increase in Cmax as dose increased from 100 to 700 mg/kg [5]: 2.4 fold | fold increase in AUC as dose increased from 100 to 700 mg/kg [6]: 4.6 fold | fold increase in Cmax as dose increased from 100 to 700 mg/kg [6]: 5.9 fold | PA Concentration in Mouse Striatal Dialysate (Corrected for Dilution), Mean ([7]; 1.5 h): 61.5 nM | PA Concentration in Mouse Striatal Dialysate (Corrected for Dilution), Mean ([7]; 2 h): 80.7 nM | PA Concentration in Mouse Striatal Dialysate (Corrected for Dilution), Mean ([7]; 2.5 h): 87.6 nM | PA Concentration in Mouse Striatal Dialysate (Corrected for Dilution), Mean ([7]; 3 h): 95.3 nM | AUC (in vivo [8]; 100 mg/kg): 3.4 µM·h | Cmax (in vivo [8]; 100 mg/kg): 683 nM | AUC (in vivo [8]; 300 mg/kg): 5.76 µM·h | Cmax (in vivo [8]; 300 mg/kg): 771 nM | AUC (in vivo [8]; 700 mg/kg): 10.5 µM·h | Cmax (in vivo [8]; 700 mg/kg): 1610 nM | AUC (in vivo [9]; 100 mg/kg): 8.68 µM·h | Cmax (in vivo [9]; 100 mg/kg): 1340 nM | AUC (in vivo [9]; 300 mg/kg): 32.5 µM·h | Cmax (in vivo [9]; 300 mg/kg): 4750 nM | AUC (in vivo [9]; 700 mg/kg): 40.1 µM·h | Cmax (in vivo [9]; 700 mg/kg): 7900 nM | AUC (in vivo [10]): 3.35 µM·h | Cmax (in vivo [10]): 589 nM | AUC (in vivo [11]): 0.154 ± 0.105 µM·h | Cmax (in vivo [11]; PA Cmax): 88 ± 74.3 nM | concentration at 0 h (in vivo [11]; [13]): 52.8 nM | concentration at 0.5 h (in vivo [11]; [13]): 65.1 nM | concentration at 1 h (in vivo [11]; [13]): 77.7 nM | concentration at 0 h (in vivo [11]; [14]): 50.7 nM | concentration at 0.5 h (in vivo [11]; [14]): 57.7 nM | concentration at 1 h (in vivo [11]; [14]): 75.6 nM | concentration at 3.5 h (in vivo [11]; [14]): 115 nM | concentration at 4 h (in vivo [11]; [14]): 128 nM | Cmax (in vivo [11]; total PA Cmax): 130 nM | Papp at 1 h (in vitro; pH 7.4, In Vitro Measured Papp): 4.2 ± 1.3 ×10⁻⁶ cm/s | Papp at 60 min (in vitro; pig, pH 7.4, Papp): 5.6 ×10⁻⁶ cm/s | concentration at 2 h [12]: 282 nM
Structure (SMILES): CC(C)(CO)[C@@H](O)C(=O)NCCC(=O)O [PA, pantothenate]
